From ChEMBL document CHEMBL5725985, “Substituted pyridines as sodium channel blockers” (2017)

Target: Sodium channel protein type 9 subunit alpha (Homo sapiens, UniProt Q15858)
Test: FLIPR Assay: In vitro assays were performed in a recombinant cell line expressing cDNA encoding the alpha subunit (Nav1.7, SCN9a, PN1, NE) of human Nav1.7 (Accession No. NM_002977). The cell line was provided by investigators at Yale University (Cummins et al, J. Neurosci. 18(23): 9607-9619 (1998)). For dominant selection of the Nav1.7-expressing clones, the expression plasmid co-expressed the neomycin resistance gene. The cell line was constructed in the human embryonic kidney cell line, HEK293, under the influence of the CMV […] promoter, and stable clones were selected using limiting dilution cloning and antibiotic selection using the neomycin analogue, G418. Recombinant beta and gamma subunits were not introduced into this cell line. Additional cell lines expressing recombinant Nav1.7 cloned from other species can also be used, alone or in combination with various beta subunits, gamma subunits or chaperones.

Sequence of Sodium channel protein type 9 subunit alpha (Q15858 whole entry): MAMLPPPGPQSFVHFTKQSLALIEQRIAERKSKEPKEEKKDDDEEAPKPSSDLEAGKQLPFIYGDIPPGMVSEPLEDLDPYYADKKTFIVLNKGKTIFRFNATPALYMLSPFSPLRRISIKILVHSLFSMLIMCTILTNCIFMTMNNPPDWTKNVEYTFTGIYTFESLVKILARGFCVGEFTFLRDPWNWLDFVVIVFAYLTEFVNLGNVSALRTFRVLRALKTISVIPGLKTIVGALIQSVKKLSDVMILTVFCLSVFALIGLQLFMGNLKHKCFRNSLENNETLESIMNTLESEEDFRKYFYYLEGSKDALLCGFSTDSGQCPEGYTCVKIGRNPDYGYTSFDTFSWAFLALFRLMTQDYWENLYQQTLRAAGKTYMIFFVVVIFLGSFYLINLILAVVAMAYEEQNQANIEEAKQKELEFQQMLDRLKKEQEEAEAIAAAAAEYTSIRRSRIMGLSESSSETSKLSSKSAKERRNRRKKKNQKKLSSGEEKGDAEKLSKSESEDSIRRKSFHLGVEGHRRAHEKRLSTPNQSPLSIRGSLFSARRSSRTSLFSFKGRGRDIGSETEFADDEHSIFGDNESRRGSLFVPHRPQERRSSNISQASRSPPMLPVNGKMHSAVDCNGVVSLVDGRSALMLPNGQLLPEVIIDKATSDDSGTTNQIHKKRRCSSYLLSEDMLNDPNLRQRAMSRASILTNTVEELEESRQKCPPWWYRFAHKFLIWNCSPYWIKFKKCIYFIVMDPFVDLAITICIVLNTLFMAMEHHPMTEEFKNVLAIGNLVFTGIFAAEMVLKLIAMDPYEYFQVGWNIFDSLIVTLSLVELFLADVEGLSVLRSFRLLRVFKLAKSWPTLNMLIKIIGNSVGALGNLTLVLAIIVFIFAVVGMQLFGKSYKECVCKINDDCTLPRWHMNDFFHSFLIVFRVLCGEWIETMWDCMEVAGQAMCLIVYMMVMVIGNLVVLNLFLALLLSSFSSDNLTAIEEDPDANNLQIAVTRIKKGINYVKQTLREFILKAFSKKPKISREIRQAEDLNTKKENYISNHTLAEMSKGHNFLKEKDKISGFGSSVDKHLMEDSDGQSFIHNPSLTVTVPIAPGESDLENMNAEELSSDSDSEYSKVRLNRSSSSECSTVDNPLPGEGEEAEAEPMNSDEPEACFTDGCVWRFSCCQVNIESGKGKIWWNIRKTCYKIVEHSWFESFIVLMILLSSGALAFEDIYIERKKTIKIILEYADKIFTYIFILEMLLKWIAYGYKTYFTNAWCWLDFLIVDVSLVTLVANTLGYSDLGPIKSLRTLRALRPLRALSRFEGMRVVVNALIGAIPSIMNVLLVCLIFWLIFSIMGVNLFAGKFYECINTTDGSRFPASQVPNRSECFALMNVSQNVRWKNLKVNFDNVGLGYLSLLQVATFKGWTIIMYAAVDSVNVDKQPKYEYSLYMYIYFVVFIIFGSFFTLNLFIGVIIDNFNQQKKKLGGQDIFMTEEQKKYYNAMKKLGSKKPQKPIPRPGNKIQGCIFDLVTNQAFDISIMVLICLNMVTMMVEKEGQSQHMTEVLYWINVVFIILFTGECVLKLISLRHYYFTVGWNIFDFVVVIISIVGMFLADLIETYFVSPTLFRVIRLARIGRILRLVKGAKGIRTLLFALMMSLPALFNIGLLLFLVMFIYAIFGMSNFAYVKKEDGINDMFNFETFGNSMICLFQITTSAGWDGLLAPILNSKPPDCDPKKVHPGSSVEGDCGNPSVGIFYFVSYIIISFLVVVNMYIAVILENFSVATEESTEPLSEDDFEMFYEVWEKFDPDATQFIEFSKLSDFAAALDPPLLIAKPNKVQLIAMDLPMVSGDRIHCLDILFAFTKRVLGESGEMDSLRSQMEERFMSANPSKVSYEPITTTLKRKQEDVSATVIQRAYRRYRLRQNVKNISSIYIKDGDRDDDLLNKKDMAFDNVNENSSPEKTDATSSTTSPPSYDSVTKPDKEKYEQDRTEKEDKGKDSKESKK

For `CC(C)C[C@H](NC(=O)C1CC1)C(=O)Nc1cccc(-c2ccc(Oc3ccc(F)cc3)cc2)n1`, the IC50 was 36 nM.
